Reference: ChEMBL document CHEMBL1201862, “PubChem BioAssay data set” (2004)
Activity calls are given as the source filed them.

Key:
[1] = HEK-293T cell viability reduction – luminescence, B-cell screen hits, cytotoxicity control for BCR NF-kB inhibitor project, dose response (AID 489021); format: functional, cell-based;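 also: HEK-293T cells carrying an NF-kB luciferase reporter; cells exposed to compound for about 14 hours before viability readout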
[2] = target: T1, Short transient receptor potential channel 4 (Mus musculus, UniProt Q9QUQ5); assay: block of DAMGO-driven TRPC4 calcium entry – cell-based, HEK293 TRPC4/mu-opioid, Fluo-4 calcium, dose response (AID 434942); format: functional;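 also: potency of inhibitors blocking the TRPC4 calcium response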
T1 sequence (Q9QUQ5 whole entry): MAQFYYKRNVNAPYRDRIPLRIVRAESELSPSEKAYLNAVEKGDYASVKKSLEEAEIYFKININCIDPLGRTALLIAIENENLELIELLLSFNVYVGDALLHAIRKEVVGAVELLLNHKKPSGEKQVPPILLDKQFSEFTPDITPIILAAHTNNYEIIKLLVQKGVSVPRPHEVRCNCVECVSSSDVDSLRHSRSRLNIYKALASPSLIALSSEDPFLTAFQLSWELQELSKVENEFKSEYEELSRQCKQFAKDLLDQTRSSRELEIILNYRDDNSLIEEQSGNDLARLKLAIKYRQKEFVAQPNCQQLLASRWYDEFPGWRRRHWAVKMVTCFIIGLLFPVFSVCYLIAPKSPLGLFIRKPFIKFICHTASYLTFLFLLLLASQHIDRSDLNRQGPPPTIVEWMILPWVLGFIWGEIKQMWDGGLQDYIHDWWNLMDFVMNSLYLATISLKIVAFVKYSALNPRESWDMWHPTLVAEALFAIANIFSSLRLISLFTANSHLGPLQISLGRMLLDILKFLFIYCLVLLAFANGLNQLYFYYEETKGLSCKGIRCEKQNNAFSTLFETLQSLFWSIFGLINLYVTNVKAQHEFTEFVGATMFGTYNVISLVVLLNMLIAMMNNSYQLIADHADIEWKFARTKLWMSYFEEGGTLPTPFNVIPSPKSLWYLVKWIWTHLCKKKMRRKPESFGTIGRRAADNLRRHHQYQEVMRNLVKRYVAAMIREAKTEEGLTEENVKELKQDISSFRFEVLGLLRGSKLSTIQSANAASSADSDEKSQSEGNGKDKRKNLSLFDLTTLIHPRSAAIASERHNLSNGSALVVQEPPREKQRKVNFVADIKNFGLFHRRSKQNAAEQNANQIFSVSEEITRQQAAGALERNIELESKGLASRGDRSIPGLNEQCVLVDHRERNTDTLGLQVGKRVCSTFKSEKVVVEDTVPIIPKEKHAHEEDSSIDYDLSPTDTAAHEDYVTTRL

HEK293 [3] = assay: inhibition of NOD1-driven NF-kB reporter – cell-based, luminescence, uHTS, primary screen (AID 1578); format: functional; details: Homo sapiens
HEK293 [4] = assay: cells; format: functional, cell-based; details: Homo sapiens
HEK293 [5] = assay: cells; format: functional, cell-based; details: Homo sapiens; remark: listed apart in the source
HEK293 [6] = assay: NOD2 signaling inhibitors in MDP-stimulated cells, cell-based, uHTS, luminescence (AID 2001); format: functional; details: Homo sapiens
[7] = target: Eukaryotic translation initiation factor 4E (Mus musculus, UniProt P63073); assay: blockers of eIF4G binding by eIF4E – biochemical, TR-FRET, dose response (AID 855); format: functional;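 also: potency for disrupting eIF4E binding to eIF4GI seen as loss of FRET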
Chain of Eukaryotic translation initiation factor 4E (P63073 whole entry): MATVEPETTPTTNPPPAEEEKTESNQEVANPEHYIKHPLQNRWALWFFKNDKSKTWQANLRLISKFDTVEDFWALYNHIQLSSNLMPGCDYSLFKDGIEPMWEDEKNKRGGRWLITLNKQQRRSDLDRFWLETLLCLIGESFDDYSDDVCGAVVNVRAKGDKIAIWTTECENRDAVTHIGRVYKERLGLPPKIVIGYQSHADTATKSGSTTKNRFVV

Genome polyprotein = Genome polyprotein (dengue virus type 2, UniProt P29990); assay: flavivirus cap methylation enzyme inhibition – biochemical, confirmation dose response, primary screen (AID 588689); format: functional
Chain of Genome polyprotein (P29990 2492-3391 limits assumed): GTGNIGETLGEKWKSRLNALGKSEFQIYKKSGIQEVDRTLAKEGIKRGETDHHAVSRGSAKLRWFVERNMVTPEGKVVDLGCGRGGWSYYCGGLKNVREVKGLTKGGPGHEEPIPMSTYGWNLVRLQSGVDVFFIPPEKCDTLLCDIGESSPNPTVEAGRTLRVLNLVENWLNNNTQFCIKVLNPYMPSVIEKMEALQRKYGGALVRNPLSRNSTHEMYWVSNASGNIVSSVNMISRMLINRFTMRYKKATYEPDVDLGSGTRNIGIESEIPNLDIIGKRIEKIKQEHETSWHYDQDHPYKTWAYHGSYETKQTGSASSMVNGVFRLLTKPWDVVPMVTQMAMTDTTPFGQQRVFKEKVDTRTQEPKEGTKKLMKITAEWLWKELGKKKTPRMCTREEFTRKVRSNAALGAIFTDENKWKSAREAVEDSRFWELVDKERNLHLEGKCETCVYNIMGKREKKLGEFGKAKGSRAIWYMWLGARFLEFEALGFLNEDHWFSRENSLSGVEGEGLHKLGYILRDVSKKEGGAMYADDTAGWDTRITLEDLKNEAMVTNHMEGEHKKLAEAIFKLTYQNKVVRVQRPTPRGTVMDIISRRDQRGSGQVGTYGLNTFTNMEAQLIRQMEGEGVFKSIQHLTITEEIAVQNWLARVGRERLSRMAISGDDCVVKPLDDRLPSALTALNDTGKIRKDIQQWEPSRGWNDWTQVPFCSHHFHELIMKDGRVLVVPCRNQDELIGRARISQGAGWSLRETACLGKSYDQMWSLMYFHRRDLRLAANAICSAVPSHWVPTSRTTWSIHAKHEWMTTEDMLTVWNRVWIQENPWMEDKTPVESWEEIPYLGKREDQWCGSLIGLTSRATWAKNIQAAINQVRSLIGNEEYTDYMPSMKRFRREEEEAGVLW

[8] = luciferase reporter signal suppression in cells – H4 neuroglioma cells, luminescence, dose response (AID 1990); format: functional, cell-based
[9] = Luminescence Cell-Based Dose Response HTS to Identify Inhibitors of 5'UTR Stem-Loop Driven Prion Protein mRNA Translation in H4 Neuroglioblastoma Cells. [Related pubchem assays: 1827 (Project Summary), 1813 (Primary HTS)]; format: functional
[10] = alpha-synuclein stem-loop luciferase translation blockers – H4 neuroglioma cells, luminescence, confirmation (AID 1988); format: functional, cell-based
Paired box protein Pax-8 = Paired box protein Pax-8 (Homo sapiens, UniProt Q06710); assay: PAX8 transcriptional activity inhibition in RMG-I – RMG-I cells, luciferase, cherry-pick, dose response (AID 687027); format: functional, cell-based;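 also: luciferase reporter driven by Pax8 target thyroperoxidase promoter measured by SteadyGlo luminescence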
Chain of Paired box protein Pax-8 (Q06710 whole entry): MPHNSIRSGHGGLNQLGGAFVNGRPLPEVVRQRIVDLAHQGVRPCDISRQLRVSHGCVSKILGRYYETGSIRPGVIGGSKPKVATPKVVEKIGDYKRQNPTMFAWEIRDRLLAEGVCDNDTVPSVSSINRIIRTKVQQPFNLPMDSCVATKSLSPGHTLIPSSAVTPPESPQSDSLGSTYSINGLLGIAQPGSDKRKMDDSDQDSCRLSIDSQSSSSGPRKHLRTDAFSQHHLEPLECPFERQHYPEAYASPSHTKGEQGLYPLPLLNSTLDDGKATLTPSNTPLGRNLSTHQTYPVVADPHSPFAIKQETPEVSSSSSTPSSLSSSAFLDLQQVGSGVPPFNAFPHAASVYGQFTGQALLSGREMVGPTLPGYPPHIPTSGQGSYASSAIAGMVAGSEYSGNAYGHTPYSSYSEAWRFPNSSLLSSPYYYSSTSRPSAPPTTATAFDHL

[11] = Luminescence Cell-Based Dose Confirmation HTS to Identify Activators of 5'UTR Stem-Loop Driven Alpha-Synuclein mRNA Translation in H4 Neuroglioblastoma Cells. [Related pubchem assays: 1829 (Project Summary), 1814 (Primary HTS)]; format: functional
[12] = Luminescence Cell-Based Dose Response HTS to Identify Activators of Luciferase Translation or Activity in H4 […] Cells. [Related pubchem assays: 1829 (Project Summary), 1814 (Primary HTS)]; format: functional
H4 = assay: Luminescence Cell-Based Dose Response HTS to Identify Activators of 5'UTR Stem-Loop Driven Prion Protein mRNA Translation in H4 Neuroglioblastoma Cells. [Related pubchem assays: 1829 (Project Summary), 1814 (Primary HTS)]; format: functional; details: Homo sapiens
[13] = viability loss in CEM21 cells – cell-based, CellTiter-Glo luminescence, cherry-picked, cytotoxicity control for viral fusion inhibitor project, dose response (AID 652042); format: functional;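 also: potency for signal decrease meaning cytotoxicity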
[14] = off-target signal loss in HeLa-CEM21 co-culture – HeLa F-luc CTL cells, cherry-picked, counter-screen for HIV-1 Env fusion inhibitor project, dose response (AID 652040); format: functional, cell-based;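 also: potency for signal decrease marking cytotoxic or nonspecific inhibition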
[15] = HIV-1 AD8 envelope cell-cell fusion blockers – cherry-pick, dose response (AID 652062); format: functional, cell-based;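 also: luciferase signal from cell-cell fusion driven by HIV-1 clade B AD8 Env; potency is for inhibitors of fusion seen as a drop in luminescence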
[16] = Trypanosoma cruzi growth suppression in host cells – NIH3T3 host cells, beta-gal luminescence, confirmation (AID 2044); format: functional, cell-based;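 also: intracellular parasites grown in NIH/3T3 mouse fibroblasts as host cells; luminescent beta-galactosidase reporter signal from transgenic T. cruzi replicating inside host cells; inhibitors lower the luminescence signal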
[17] = NIH3T3 cell viability loss – ATP luminescence, mouse fibroblasts, counter-screen, dose response (AID 2010); format: functional, cell-based;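 also: cells exposed to compound for about 90 hours before reading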
[18] = target: T2, DNA repair protein RAD52 homolog (Homo sapiens, UniProt P43351); format: functional, biochemical
T2 sequence (P43351 whole entry): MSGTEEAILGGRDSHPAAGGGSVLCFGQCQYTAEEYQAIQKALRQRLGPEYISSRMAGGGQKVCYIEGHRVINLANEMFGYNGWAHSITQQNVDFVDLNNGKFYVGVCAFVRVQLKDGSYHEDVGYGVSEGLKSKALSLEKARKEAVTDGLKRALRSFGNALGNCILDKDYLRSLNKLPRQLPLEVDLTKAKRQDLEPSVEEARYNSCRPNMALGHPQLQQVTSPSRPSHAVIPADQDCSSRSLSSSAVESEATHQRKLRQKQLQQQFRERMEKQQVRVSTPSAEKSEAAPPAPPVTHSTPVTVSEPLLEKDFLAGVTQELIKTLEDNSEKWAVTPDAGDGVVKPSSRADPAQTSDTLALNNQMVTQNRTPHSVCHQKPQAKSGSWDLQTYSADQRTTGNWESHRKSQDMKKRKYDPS

[19] = NIH-3T3 fibroblast cytotoxicity, dose response, cytotoxicity control, cell-based, fluorescence, Alamar Blue, secondary assay (AID 2327); format: functional;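 also: NIH-3T3 mouse fibroblasts cultured with fluconazole at 8 µg/mL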
[20] = fluconazole-exposed Candida albicans growth modulators – fluorescence, retest, confirmation (AID 2467); format: functional, cell-based
Nonstructural protein 1 = Nonstructural protein 1 (Influenza A virus, UniProt Q194T2); format: functional, Influenza A virus (A/California/07/2009(H1N1))
Chain of Nonstructural protein 1 (Q194T2 whole entry): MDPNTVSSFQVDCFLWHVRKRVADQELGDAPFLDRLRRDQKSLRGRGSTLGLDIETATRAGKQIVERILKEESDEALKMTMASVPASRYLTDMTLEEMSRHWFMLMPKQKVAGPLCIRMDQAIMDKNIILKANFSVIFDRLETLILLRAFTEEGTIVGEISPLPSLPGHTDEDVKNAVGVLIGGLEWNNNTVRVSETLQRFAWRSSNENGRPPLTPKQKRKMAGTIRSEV

INS1 = assay: INS-1E survival protection against cytokine death – cell-based, luminescence, retest, dose response (AID 449756); format: functional; details: Rattus norvegicus;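 also: cell death triggered by IL-1 beta plus TNF-alpha plus IFN-gamma mixture; protective hits raise ATP signal compared with cytokine alone wells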
[21] = A549 cell cytotoxicity, dose response, cytotoxicity control, plate reader, cherry-pick, antagonist series (AID 743412); format: functional, cell-based
[22] = toxicity toward HepG2 liver cells – cell-based, plate reader, cherry-pick, antagonist series, cytotoxicity control, dose response (AID 743416); format: functional
[23] = viability loss in HEK293 cells – cell-based, plate reader, cherry-picked samples, cytotoxicity control, dose response (AID 743446); format: functional
[24] = Luminescence Cell-Based Dose Retest to Confirm Inhibitors of Cancer Stem Cells. [Related pubchem assays (depositor defined):AID2717, AID2721]; format: functional; details: Homo sapiens
HEK293 [25] = assay: EBV LMP1 TES2 canonical NF-kB signalling blockers – cell-based, HEK293, luciferase, cherry-pick, dose response (AID 588343); format: functional; details: Homo sapiens
[26] = blockers of bursicon-stimulated LGR2 cAMP reporter – cell-based, HEK293, CRE-luciferase reporter, cherry pick, set 2, dose response (AID 743343); format: functional;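 also: transfected cells were stimulated with diluted bursicon conditioned medium after compound addition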
[27] = blockade of melanocortin 4 receptor signaling – cell-based, plate reader, cherry pick, counter-screen for LGR2 antagonist project, dose response (AID 743444); format: functional;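 also: transfected HEK 293 cells stimulated with alpha-MSH peptide; potency of inhibitors of the alpha-MSH evoked signal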

With `CCn1c(=O)cc(OCC(=O)NCc2ccc(C)o2)c2ccccc21` as the compound, how does the IC50 [1] read?
The IC50 was > 80 µM (inactive).

Which EC50 [2] does the source give for `O=C(C[N+]1(CC#Cc2ccccc2)CCCCC1)c1ccc(Cl)cc1` here?
The EC50 was 7.5 µM (active).

Which EC50 (HEK293 [3]) does the source give for `Oc1cc(-c2ccccc2)nc2cc(-c3ccc(Br)cc3)nn12` here?
Its EC50 is 10.8 µM (active).

What about the IC50 (HEK293 [4]) of the same compound?
The IC50 was 16.9 µM (active).

And the IC50 (HEK293 [5])?
Its IC50 is > 20 µM (inactive).

And the IC50 (HEK293 [6])?
The IC50 was 5.12 µM (inactive).

With `Cc1ccc(C)c(NC(S)=NCCN(C2CCCCC2)C2CCCC2)c1` as the compound, how does the IC50 [7] read?
The IC50 was 50 µM (inactive).

For `CCCCOc1ccc(Nc2cc(Cl)ccc2C(=O)O)cn1`, which EC50 [2] is on record?
Its EC50 is 10.6 µM (active).

And the IC50 (Genome polyprotein)?
Its IC50 is 59.8 µM (active).

For `O=C(NCCC1CCCCN1S(=O)(=O)c1ccc(Cl)cc1)C(=O)NCc1ccncc1` (centres undefined), which EC50 [8] is on record?
The EC50 was 15.5 µM (active).

What about the EC50 [9] of the same compound?
The EC50 was 20.8 µM (active).

What about the EC50 [10] of the same compound?
The EC50 was 9.38 µM (active).

What about the IC50 [1] of the same compound?
The IC50 was > 80 µM (inactive).

And the AC50 (Paired box protein Pax-8)?
Its AC50 is 3.27 µM (active).

Which EC50 [11] does the source give for `Cc1nnc(SC(=O)N2c3ccccc3Sc3ccccc32)s1` here?
The EC50 was > 120 µM (not active).

And the EC50 [12]?
Its EC50 is > 60 µM (not active).

And the EC50 (H4)?
Its EC50 is > 120 µM (not active).

And the AC50 [13]?
Its AC50 is 10.6 µM (active).

What about the AC50 [14] of the same compound?
The AC50 was 30.8 µM (active).

And the AC50 [15]?
The AC50 was 3.79 µM (active).

Which EC50 [16] does the source give for `CCOC(=O)c1c(C)n(CC(O)CN(C)C)c2cc(Br)c(OC)cc12` (centres undefined) here?
Its EC50 is 0.685 µM (active).

And the EC50 [17]?
The EC50 was > 60 µM (not active).

What about the AC50 [18] of the same compound?
Its AC50 is 10.1 µM (active).

Which EC50 [2] does the source give for `Cc1cc(C)cc(NC(=N)Nc2nc(C)cc(C)n2)c1` here?
The EC50 was 2.99 µM (active).

With `Cc1ccc(C)c(OCc2ccc(C(=O)NN)o2)c1` as the compound, how does the IC50 [1] read?
Its IC50 is > 80 µM (inactive).

For `N#CC1=C(N)Oc2c(ccc3cccnc23)C1c1cccnc1` (centres undefined), which EC50 [19] is on record?
Its EC50 is 22.1 µM (active).

What about the EC50 [20] of the same compound?
Its EC50 is 1.18 µM (active).

What about the IC50 (Nonstructural protein 1) of the same compound?
Its IC50 is 56.6 µM (active).

What about the AC50 (INS1) of the same compound?
Its AC50 is 3.17 µM (active).

Which results are given for `O=C(CSc1[nH]cnc2nncc1-2)Nc1nc(-c2ccc(F)c(F)c2)cs1`?
AC50 [21]: 46.1 µM (active); AC50 [22]: > 52 µM (inactive); AC50 [23]: > 52 µM (inactive)

For `COc1cccc(/C=C/c2ccc3ccccc3n2)c1OC(C)=O`, which AC50 [24] is on record?
Its AC50 is 6.67 µM (active).

And the AC50 (HEK293 [25])?
The AC50 was 1.87 µM (active).

And the AC50 [21]?
Its AC50 is 25.3 µM (active).

And the AC50 [22]?
Its AC50 is 33.3 µM (active).

And the AC50 [26]?
The AC50 was 2.77 µM (active).

What about the AC50 [27] of the same compound?
The AC50 was 2.59 µM (active).

What about the AC50 [23] of the same compound?
Its AC50 is 30.1 µM (active).
